Measurements taken from US20240252508A1, “Novel glucose uptake inhibitors for use in the treatment of cancer” (NOVELYEAST BV, priority 2021, published 2024).
Entries after “also recorded” stand apart in the source; their conditions may differ.

Tests used:
tps1Δ cells = assay: Growth rescue of tps1Δ strain on glucose (growth curves, 2% galactose medium); assay type: cell-based, S. cerevisiae; conditions: 100 μM compound, 2.5 mM glucose
Outline: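 Growth at 30 °C was tracked by OD595 readings every 30 min, with at least triplicate technical wells. Cells came from 2% galactose synthetic precultures, were washed and set to OD 0.1, and received compound 10 min ahead of the glucose addition.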

[1] = test system: A549 lung adenocarcinoma cells; assay: A549 cell proliferation / growth inhibition; assay type: cell-based, human; conditions: for Selected from primary screen for growth inhibition of A549 cells at 50 μM: 50 μM compound; for Selected for having an IC50 ratio (10 mM glucose: 1 mM glucose) of A549 growth higher than WBC-A: IC50 on 10 mM vs 1 mM glucose, compared with WBC-A; for Potency in reducing maximal growth rate of A549 cells: 6.25-50 μM
Outline: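 A549 growth screened in RPMI with 1 mM glucose, compounds at 50 μM; cell number from counts of Hoechst-stained nuclei after 3 days. Growth curves also followed by IncuCyte phase-contrast confluency over 3–5 days (1000–1500 cells/well), DMSO ≤0.1%, ≥4 technical repeats.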

[2] = test system: KMS-12-PE multiple myeloma cells; assay: Steady-state glucose consumption and lactate production in KMS-12-PE cells; assay type: cell-based, human; conditions: 25 μM, 1 mM glucose, 8 h
Description: (§1) The influence of WBC compounds on the steady-state glucose consumption rate was studied in the A549 adenocarcinoma and KMS-12-PE multiple myeloma cell lines. As such, different parameters needed to be optimized depending on whether cells were adherent or in suspension. As such, A549 cells were incubated at 125,000 cells/well in a 24-well plate in 300 μL RPMI medium for 8 h. For the KMS-12-PE cell line, 100,000 cells/well were incubated in 100 μL RPMI medium in a 96-well plate for 8 h. Medium was collected, spun down and HPLC-analyzed for measuring glucose and lactate levels. Metabolite levels were corrected for cell number, which always varied little over the span of 8 h. For every condition, at least 4 technical repeats were included.

[3] = Warbicin toxicity and tolerability in mice; assay type: in vivo, NMRI-nu mice; conditions: for Loss in body weight over 20 days: daily i.p. 5, 10 and 20 mg/kg, nude mice; for AST/ALT ratio vs vehicle: sera after 20 days, 5, 10, 20 mg/kg i.p.; for Blood glucose level vs vehicle: sera post mortem after 20 days, 5, 10, 20 mg/kg i.p.
Description: Warbicin in vivo toxicity and tolerability was examined by subjecting NMRI-nu mice to daily intraperitoneal injection of either WBC-A, WBC-15C, WBC-4C or WBC-11C. Compounds were dosed at either 5 mg/kg, 10 mg/kg or 20 mg/kg over a period of 20 days. Three mice were used per condition. To evaluate toxicity, change in body weight was registered daily. As a humane endpoint, mice that lost more than 20% of their original body weight were prematurely sacrificed. An optimal dissolve strategy was developed to administer WBC compounds by intraperitoneal injection. Due to their considerable hydrophobicity, compounds were dissolved in a sterilized 1×PBS, 5% DMSO and 5% Tween-80 solution. For WBC-A, -15C and -4C, this gives an initial clear solution that gradually changes over time into a homogenous suspension which can still be administered in a reproducible way. For WBC-11C it immediately results in a homogenous suspension.

[4] = test system: U266 multiple myeloma cell line; assay: U266 proliferation (cell count); assay type: cell-based, human; conditions: 25 μM, 4 days, RPMI with 1 mM glucose
Description: a. Cell count of the U266 multiple myeloma cell line after 4 days of growth on RPMI medium with 1 mM glucose. Cells were treated with either DMSO or 25 μM of WBC-A, -15C, -4C or -11C. Glucose consumption (b.) or lactate secretion (c.) rates are shown for U266 cells incubated in RPMI medium supplemented with 1 mM glucose for 8 h.

[5] = test system: A549 lung adenocarcinoma cells; assay: Steady-state glucose consumption and lactate production in A549 cells; assay type: cell-based, human; conditions: 25 μM, 1 mM glucose, 8 h
Description: as §1

[6] = test system: MCF10A breast epithelia cell line transformed with the H-RAS^V12 allele; assay: MCF10A H-RAS^V12 growth and apoptosis (IncuCyte); assay type: cell-based, human; conditions: 25 μM
Description: For both adherent A549 and MCF10Δ H-RAS^V12 cell lines, growth curves were established using the IncuCyte® ZOOM technology. By collecting phase contrast images, the IncuCyte® software provides a calculated confluency percentage from which growth curves can be deducted.
Cells were seeded at a density of 1000-1500 cells/well in a Nunc-Edge™ 96-well plate (Thermo Fisher Scientific) and growth was typically measured over 3 to 5 days. For the measurement of apoptosis induction using the MCF10Δ H-RAS^V12 cell line, the IncuCyte® Caspase-3/7 green dye was added to the medium in the recommended concentration at the beginning of the growth curve experiment. Apoptosis was detected by taking fluorescent images by excitation at 488 nm followed by IncuCyte® software analysis. Cell growth of the KMS-12-PE multiple myeloma cell line, which grows in suspension, was measured by manual cell counting. Cells were initially seeded at a density of 10^4 cells/well and incubated for 4 days after which the cell number was counted. For all cell lines, the same medium used for pregrowth was also used for the growth curve experiment, albeit with different glucose concentrations depending on the experimental design. With compound administration, the final concentration of DMSO never exceeded 0.1%. Typically, at least four technical repeats were included per condition.

[7] = test system: A549 lung adenocarcinoma cells; assay: 2-deoxyglucose uptake in A549 cells; assay type: cell-based, human; conditions: for Type of inhibition of 2-deoxyglucose uptake in A549 cells: Lineweaver-Burk plot analysis
Description: Zero-trans glucose uptake in A549 cells was approximated by measuring the uptake of [1,2-^3H]2-deoxyglucose. For this purpose, A549 cells were pregrown in RPMI medium containing 10 mM glucose in a 24-well plate to a cell density of around 100,000 cells/well. Prior to adding radioactive label, cells were gently washed twice in Krebs-Ringer-HEPES buffer (50 mM HEPES pH 7.4, 137 mM NaCl, 4.7 mM KCl, […], 1.3 mM MgSO4 and 0.1% w/v BSA) at 30° C. to remove any residual sugar. RPMI medium without sugar containing the compound intended for treatment, was added to the cells for 15 min at 37° C. to allow adequate interaction of the cells with the compound.
The uptake measurement was initiated by adding an equal volume of medium containing radiolabeled 2DG. After 3-4 min, medium was aspirated and cells were gently washed three times with ice-cold Krebs-Ringer-HEPES buffer. Cells were lysed by adding 200 μL of ice-cold 0.1 M NaOH solution and incubating the plate for 10 min at 37° C. Cell lysates were transferred to scintillation vials for subsequent scintillation counting. For blank measurements, cells were incubated with 50 μM Cytochalasin B prior to the uptake measurement.

| Compound | Rescue of the tps1Δ strain on 2.5 mM glucose at 100 μM (tps1Δ cells) | Selected from primary screen for growth inhibition of A549 cells at 50 μM ([1]; 1 mM glucose) | further results |
| --- | --- | --- | --- |
| COC(=O)CSc1nnc(C(C)C)c2cnn(-c3ccc(C)cc3)c12 [76C] | No | Yes | Selected for having an IC50 ratio (10 mM glucose: 1 mM glucose) of A549 growth higher than WBC-A [1]: Lower IC50 ratio |
| COc1ccccc1-n1ncc2c(C)nnc(SCC(=O)N3CCOCC3)c21 [77C] | No | No |  |
| Cc1nc(SCC(=O)N2CCOCC2)c2ccsc2n1 [78C] | No | No |  |
| CCc1nc(SCC(=O)OC)c2c3c(sc2n1)COC(C)(C)C3 [79C] | No | No |  |
| CC(C)Sc1nc(SCCN2CCOCC2)c2c3c(sc2n1)COC(C)(C)C3 [80C] | No | No |  |
| CSc1nc(SCCO)c2c3c(sc2n1)COC(C)(C)C3 [81C] | No | Yes | Selected for having an IC50 ratio (10 mM glucose: 1 mM glucose) of A549 growth higher than WBC-A [1]: Lower IC50 ratio |
| NC(=O)CSc1ncnc2scc(-c3ccccc3)c12 [82C] | No | No |  |
| Cc1nc(SCCN2CCCS2(=O)=O)c2c(C)c(C)sc2n1 [83C] | No | No |  |
| c1nc(SCCN2CCOCC2)c2c3c(sc2n1)CCCC3 [84C] | No | No |  |
| Cc1nc(NCCN2CCOCC2)c2c(-c3ccccc3)csc2n1 [85C] | No | Yes | Selected for having an IC50 ratio (10 mM glucose: 1 mM glucose) of A549 growth higher than WBC-A [1]: Higher IC50 ratio, but false-positive |
| COC(=O)CSc1ncnc2scc(-c3ccccc3)c12 [86C] | No | No |  |
| Cc1nc(Sc2nnc3n2CCC(CN=[N+]=[N-])CC3)c2c(-c3cccs3)csc2n1 (stereo not shown) [87C] | Yes | Yes | Selected for having an IC50 ratio (10 mM glucose: 1 mM glucose) of A549 growth higher than WBC-A [1]: Lower IC50 ratio |
| Cc1nc(Sc2nnc3n2CCCCC3)c2c(-c3cccs3)csc2n1 [A] | Yes | Yes |  |
| Cc1nc(NCC(=O)NCc2ccco2)c2c(-c3ccccc3)csc2n1 [WBC-4C] |  |  | Glucose consumption and lactate production in KMS-12-PE cells [2]: inhibited; Weight loss of one single mouse sacrificed at day 19 ([3]; daily i.p. 20 mg/kg): 20%; Other abnormalities at autopsy ([3]; daily i.p. 5, 10, 20 mg/kg, 20 days): No other abnormalities; Loss in body weight over 20 days [3]: no significant loss in body weight; also recorded: No significant difference; AST/ALT ratio vs vehicle [3]: No significant difference; Blood glucose level vs vehicle [3]: No significant difference; Proliferation of U266 cell line [4]: inhibit proliferation; Glucose consumption and lactate production in A549 cells [5]: inhibited; Proliferation of MCF10A H-RAS^V12 cell line on 1 mM glucose [6]: highest potency; Ki ([7]; Dixon plot analysis, read-out: Ki (=K′i), 2-deoxyglucose uptake in A549 cells): 26.8 µM; Type of inhibition of 2-deoxyglucose uptake in A549 cells [7]: noncompetitive; Potency in reducing maximal growth rate of A549 cells ([1]; 1 mM glucose): intermediate potency |
| Cc1nc(NCC(=O)Nc2ccccc2Br)c2c(-c3cccs3)csc2n1 [WBC-15C] |  |  | Glucose consumption and lactate production in KMS-12-PE cells [2]: inhibited; Toxic effects in organs at autopsy, 20 mg/kg ([3]; daily i.p. 20 mg/kg, not observed at lower concentrations): toxic effects were seen in the liver and other organs; Loss in body weight over 20 days [3]: no significant loss in body weight; also recorded: No significant difference; AST/ALT ratio vs vehicle [3]: No significant difference; Blood glucose level vs vehicle [3]: No significant difference; Proliferation of U266 cell line [4]: inhibit proliferation; Glucose consumption and lactate production in A549 cells [5]: inhibited; Type of inhibition of 2-deoxyglucose uptake in A549 cells [7]: competitive; Growth inhibition of A549 cells at the highest concentration ([1]; 50 μM, 1 mM glucose): failed to cause complete inhibition; Potency in reducing maximal growth rate of A549 cells ([1]; 1 mM glucose): least potent |
